These results are taken from patent publication US10918648B2, “Estrogen receptor modulator combinations” (The Regents of the University of California, priority 2016, dated 2021).

The subject of one assay is Rb serine-780. Description: Rb serine-780 phosphorylation, Western blot in A549 cells. It is filed as cell-based, human. The note with it: 24 h, 1% DCC-FBS, 1 nM E2, 1 nM androstenedione, 10 nM testosterone, 10 μM letrozole, 100 nM palbociclib, FIG. 4C. Here is the method:
FIG. 4C. […] Cells were treated 24 h in phenol red-free RPMI with 1% DCC-FBS with vehicle control (CON), 1 nM estradiol-17β (E2), 1 nM androstenedione (And), 10 nM testosterone (Tes), 10 μM letrozole (AI), 100 nM palbociclib (Plbo) or both Plbo+AI. After 24 hr, cell lysates subjected to Western blot with antibody to phosphoserine-780 Rb or total Rb (Cell Signaling) (20). GAPDH is used as loading control.
To investigate the antitumor efficacy of CDK 4/6 inhibitor palbociclib in NSCLC cells, we assessed the effects of palbociclib alone and in combination with the hormonal therapeutic letrozole (see FIGS. 4B and 5B). The potential mechanism of action of palbociclib and letrozole in NSCLC cells was investigated by assay of the effects of these agents alone and combined on phosphorylation of Rb serine-780

The next assay has as its system A549 NSCLC cells. Kind of assay: NSCLC cell proliferation in vitro (MTS assay). It is filed as cell-based, human. The conditions noted are these: 72 hours, MTS assay.
A further assay concerns H1975 NSCLC cells. Kind of assay: NSCLC cell proliferation in vitro (MTS assay). It counts as cell-based, human. The conditions noted are these: 72 hours. Here is the method: (§1) Cell culture: Human breast and non-small cell lung cancer cells (MCF7, ZR75-1, MDAMB231, A549, H23, H1975, […]) were from ATCC. MCF7-HER2 were a kind gift of Dr. Dennis Slamon (23). Cell lines were routinely maintained in RPMI 1640 or DMEM medium with 10% fetal bovine serum (FBS) (Sigma-Aldrich) and 1% Antibiotic-Antimycotic solution 100× (Mediatech, Herndon, Va.). When indicated, for estrogen-free conditions, media was changed 48 h before experiments to phenol-red free RPMI 1640/DMEM with 1% dextran-coated, charcoal-treated (DCC)-FBS (24,25). Otherwise experiments were performed in phenol-red free RPMI 1640/DMEM medium with 5% DCC-FBS.
(§2) Cell proliferation assays: breast and lung tumor cells (between […]) were plated in 96 well plates using their respective medium with 10% FBS. For experiments using estradiol-17β, cells were rinsed with PBS and incubated with phenol redfree medium with 1% DCC-FBS for 48 hours as described before (24,25). Cells were then treated with different concentrations of SERDs ranging between 0.0001-100 μM. […] Cell counts and viability tests (Trypan blue) were done every 24 hr for 3 days. After 72 hr, proliferation was assessed with the MTS Assay CELLTITER 96® Aqueous Cell Proliferation Assay (Promega) or the Cell Proliferation ELISA, BrdU colorimetric assay (Roche). For the MTS, the absorbance of the formazan product was measured at 490 nanometer using the iMARK microplate reader from BIORAD. The BrdU ELISA assay is based on detection of BrdU incorporated into the genomic DNA of proliferating cells and an anti-BrdU antibody, the reaction product was quantified by measuring the absorbance at 370 nanometers using iMARK microplate reader from BIORAD. Cell numbers were also assessed initially by cell counts to confirm MTS/BrdU data. Experiments were done at least three times to confirm data.

The subject of another assay is H2122 NSCLC cells. Kind of assay: NSCLC cell proliferation in vitro (MTS assay). It is filed as cell-based, human. The conditions noted are these: 72 hours. Here is the method:
as §1, §2

The subject of assay [1] is MCF-7 breast cancer cells. Description: MCF-7 breast cancer cell proliferation (BrdU ELISA) in presence of estradiol-17β. It is filed as cell-based, human. The conditions noted are these: Homo sapiens, MCF7; 72 hrs in the presence of 1 nM estradiol-17β, BrdU ELISA; read-out: IC50 for inhibition of cell proliferation, MCF-7. Here is the method:
In experiments to assess potential proliferative effects of novel estrogen receptor ligands, human breast cancer cells were grown in phenol red-free, estrogen-free media with 1% dextran-coated charcoal-treated (DCC)-fetal bovine serum (FBS) for 48 hrs (15,44), then treated with either 1 μM or 50 μM doses of estrogen receptor antagonists in the presence of 1 nM estradiol-17β. Cell counts and viability tests (Trypan blue) were done every 24 hr for 3 days. After 72 hr, proliferation was assessed using the BrdU Cell proliferation ELISA (Roche). Cell numbers were also assessed initially by cell counts to confirm ELISA data. Each antiestrogen was tested at least in three different experiments.
In order to assess the antitumor action of novel estrogen receptor antagonists, we cultured human MCF-7 breast cancer cells with known expression of ERα. Cells were grown in 1% DCC-FBS for 48 hr and then treated with vehicle control or either 1 μM or 50 μM concentrations of antiestrogens JD 101-160 or the pure antiestrogen fulvestrant (FAS), all in the presence of 1 nM estradiol-170. […] Shown in FIG. 2A are results from MCF-7 cells grown in 1% DCC-FBS for 48 hr and then treated with vehicle control, 1 nM estradiol-170 and either 1 μM or 50 μM concentrations of antiestrogens JD 101-160 or the known pure antiestrogen fulvestrant (FAS) in the presence of 1 nM estradiol-170. Cell proliferation is expressed as percentage of that determined in the 1 nM estradiol-170-treated control group.
as §2

For a further assay, the system named is MCF-7 parental cells. The note with it: MCF-7 parental xenografts in nude mice; cited from earlier work.
A further assay relates to MCF-7/HER-2 cells. The note with it: MCF-7 cells with HER2-overexpression, xenografts in nude mice; cited from earlier work.
The subject of another assay is ER+ early breast cancer. The note with it: cited from earlier work.
The mark [2] stands for this setting: Homo sapiens, A549, CDK 4/6 inhibitor without SERD, 5% DCC-FBS, read-out: IC50 for inhibition of NSCLC cell proliferation, A549.
[3] abbreviates: Homo sapiens, NCI-H1975, CDK 4/6 inhibitor without SERD, 5% DCC-FBS, read-out: IC50 for inhibition of NSCLC cell proliferation, H1975.
[4] abbreviates: Homo sapiens, NCI-H2122, CDK 4/6 inhibitor without SERD, 5% DCC-FBS, read-out: IC50 for inhibition of NSCLC cell proliferation, H2122.
Where [5] appears, read: Homo sapiens, A549, SERD alone, estrogen-depleted phenol red-free medium with 5% DCC-FBS, read-out: IC50 for inhibition of NSCLC cell proliferation, A549.
Where [6] appears, read: Homo sapiens, NCI-H1975, SERD alone, estrogen-depleted phenol red-free medium with 5% DCC-FBS, read-out: IC50 for inhibition of NSCLC cell proliferation, H1975.
[7] abbreviates: Homo sapiens, NCI-H2122, SERD alone, estrogen-depleted phenol red-free medium with 5% DCC-FBS, read-out: IC50 for inhibition of NSCLC cell proliferation, H2122.

The structures appear in SMILES notation. Like-named read-outs stand apart in the source and are kept apart here.

For the compound `C[C@]12CCC(=O)C=C1CC[C@@H]1[C@@H]2CC[C@]2(C)C(=O)CC[C@@H]12` [androstenedione], the “phosphorylation of Rb serine-780” value with Rb serine-780 is “stimulate Rb phosphorylation”.
As for `CC(=O)c1c(C)c2cnc(Nc3ccc(N4CCNCC4)cn3)nc2n(C2CCCC2)c1=O` [Palbociclib, palbociclib, reference compound], the IC50 in the assay on A549 NSCLC cells (setting [2]) is 3040 nM; in the assay with H1975 NSCLC cells (setting [3]), 1180 nM; with H2122 NSCLC cells (setting [4]), 870 nM.
For `CCN1CCN(Cc2ccc(Nc3ncc(F)c(-c4cc(F)c5nc(C)n(C(C)C)c5c4)n3)nc2)CC1` [Abemaciclib, abemaciclib, reference compound], the values for the IC50 with A549 NSCLC cells (setting [2]), in the assay with H1975 NSCLC cells (setting [3]) and in the assay on H2122 NSCLC cells (setting [4]) were 990 nM, 830 nM and 330 nM, respectively.
Consider `CN(C)CCCC(=O)Nc1ccc(O[C@H]2C[C@]3(C)[C@@H](O)CC[C@H]3[C@@H]3CCc4cc(O)ccc4[C@H]32)cc1C(F)(F)F` [JD155, N-(4-(((8S,9S,11S,13S,14S,17S)-3,17-Dihydroxy-13-methyl-7,8,9,11,12,13,14,15,16,17-deca-hydro-6H-cyclopenta[a]phenanthren-11-yl)oxy)-2-(trifluoromethyl)phenyl)-4-(dimethylamino)butanamide], for which the IC50 in the assay on A549 NSCLC cells (setting [5]) is 2050 nM; with H1975 NSCLC cells (setting [6]), 4410 nM; in the assay on H2122 NSCLC cells (setting [7]), 1220 nM.
Turning to `C[C@]12C[C@H](Oc3ccc(NC(=O)CCCCN4CCCCC4)c(C(F)(F)F)c3)[C@@H]3c4ccc(O)cc4CC[C@H]3[C@@H]1CC[C@@H]2O` [JD156, N-(4-(((8S,9S,11S,13S,14S,17S)-3,17-Dihydroxy-13-methyl-7,8,9,11,12,13,14,15,16,17-deca-hydro-6H-cyclopenta[a]phenanthren-11-yl)oxy)-2-(trifluoromethyl)phenyl)-5-(piperidin-1-yl)pentanamide], the IC50 turned out to be 1600 nM in the assay with A549 NSCLC cells (setting [5]), 3200 nM with H1975 NSCLC cells (setting [6]) and 1690 nM in the assay on H2122 NSCLC cells (setting [7]).
Regarding `C[C@]12C[C@H](Oc3ccc(NCCN4CCOCC4)cc3)[C@@H]3c4ccc(O)cc4CC[C@H]3[C@@H]1CC[C@@H]2O` [JD121], the IC50 was determined as 1260 nM in the assay with A549 NSCLC cells (setting [5]), 2620 nM with H1975 NSCLC cells (setting [6]), 14500 nM in the assay with H2122 NSCLC cells (setting [7]) and 360 nM in assay [1].
As to `CC/C(=C(\c1ccccc1)c1ccc(OCCN(C)C)cc1)c1ccccc1` [tamoxifen], the “growth of parent tumors (xenografts)” value in the assay with MCF-7 parental cells was “suppressed”. The “sensitivity of MCF-7/HER-2 xenografts” value with MCF-7/HER-2 cells is given as “insensitive”. Also, in the assay with ER+ early breast cancer, the “reduction in disease recurrence” value is given as 39% and the reduction in mortality is 31%.
`C[C@]12C[C@H](Oc3ccc(NC(=O)CCCCN4CCOCC4)c(C(F)(F)F)c3)[C@@H]3c4ccc(O)cc4CC[C@H]3[C@@H]1CC[C@@H]2O` [JD157, N-(4-(((8S,9S,11S,13S,14S,17S)-3,17-Dihydroxy-13-methyl-7,8,9,11,12,13,14,15,16,17-deca-hydro-6H-cyclopenta[a]phenanthren-11-yl)oxy)-2-(trifluoromethyl)phenyl)-5-morpholino-pentanamide]: the IC50 came to 3950 nM in the assay with A549 NSCLC cells (setting [5]), 1800 nM in the assay with H1975 NSCLC cells (setting [6]) and 1280 nM in the assay with H2122 NSCLC cells (setting [7]).
Turning to `C[C@]12C[C@H](Oc3ccc(NC(=O)CCCN4CCCCC4)c(C(F)(F)F)c3)[C@@H]3c4ccc(O)cc4CC[C@H]3[C@@H]1CC[C@@H]2O` [JD160, N-(4-(((8S,9S,11S,13S,14S,17S)-3,17-Dihydroxy-13-methyl-7,8,9,11,12,13,14,15,16,17-deca-hydro-6H-cyclopenta[a]phenanthren-11-yl)oxy)-2-(trifluoromethyl)phenyl)-4-(piperidin-1-yl)butanamide], the IC50 came to 1410 nM in the assay on A549 NSCLC cells (setting [5]), 2020 nM in the assay with H1975 NSCLC cells (setting [6]), 2720 nM in the assay with H2122 NSCLC cells (setting [7]) and 320 nM in assay [1].
As for `C[C@]12C[C@H](Oc3ccc(NC(=O)CN4CCOCC4)cc3)[C@@H]3c4ccc(O)cc4CC[C@H]3[C@@H]1CC[C@@H]2O` [JD103, N-(4-(((8S,9S,11S,13S,14S,17S)-3,17-Dihydroxy-13-methyl-7,8,9,11,12,13,14,15,16,17-deca-hydro-6H-cyclopenta[a]phenanthren-11-yl)oxy)phenyl)-2-morpholinoacetamide], the IC50 with A549 NSCLC cells (setting [5]) was determined as 1990 nM; in the assay with A549 NSCLC cells (in the presence of 1 μM abemaciclib, 5% DCC-FBS, read-out: IC50 of SERD for inhibition of NSCLC cell proliferation, A549), 560 nM; in the assay with A549 NSCLC cells (in the presence of 1 μM palbociclib, 5% DCC-FBS, read-out: IC50 of SERD for inhibition of NSCLC cell proliferation, A549), 1220 nM; in the assay with H1975 NSCLC cells (setting [6]), 2100 nM; in the assay with H1975 NSCLC cells (in the presence of 1 μM abemaciclib, 5% DCC-FBS, read-out: IC50 of SERD for inhibition of NSCLC cell proliferation, H1975), 2670 nM; in the assay with H1975 NSCLC cells (in the presence of 1 μM palbociclib, 5% DCC-FBS, read-out: IC50 of SERD for inhibition of NSCLC cell proliferation, H1975), 4550 nM. The IC50 in the assay on H2122 NSCLC cells (setting [7]) turned out to be 1330 nM; with H2122 NSCLC cells (in the presence of 1 μM abemaciclib, 5% DCC-FBS, read-out: IC50 of SERD for inhibition of NSCLC cell proliferation, H2122), 740 nM; with H2122 NSCLC cells (in the presence of 1 μM palbociclib, 5% DCC-FBS, read-out: IC50 of SERD for inhibition of NSCLC cell proliferation, H2122), 2400 nM; in assay [1] it was 740 nM.
Turning to `C[C@]12CC[C@H]3[C@@H](CCC4=CC(=O)CC[C@@]43C)[C@@H]1CC[C@@H]2O` [testosterone], the “phosphorylation of Rb serine-780” value in the assay with Rb serine-780 was “stimulate Rb phosphorylation”.
